The record followed here is a melting point compilation (Tetko et al.; mined from patent text by program, amines drawn as free bases though some values may be those of a salt).

Compound `COc1ccc(C(=O)COc2ccc3oc(C(=O)c4ccc(OC)cc4)c(C)c3c2)cc1` returned a melting point of 155 to 157 °C.
Compound `Cc1cc(CCCOc2c(C)cc(-c3noc(CI)n3)cc2C)on1` displayed a melting point of 89 to 90 °C.
With `CC(C)n1cnc2c(NCc3cccc(O)c3O)nc(NC[C@@H](C)O)nc21` the figure was 182 to 183 °C.
With `COc1ccc(S(=O)(=O)Nc2c(C)c(C)c3c(c2C)C(c2ccc(C(C)C)cc2)C(C)(C)O3)cc1` (stereo not drawn) the figure was 206 to 208 °C.
The result for `CC1(C)CCc2c(N3CCSCC3)nc3sc4c(NCc5cccnc5)ncnc4c3c2C1` reads 257 to 258 °C; that for `[N-]=[N+]=Nc1ccc(C(=O)OCCOC(=O)C[C@@H](C(=O)O)n2c3ccccc3c3ccccc32)cc1`, 55 °C.
Compound `OCc1c(Cl)cc(Cl)cc1Cl` had a melting point of 100 to 101 °C.
The result for `Oc1ccc(CCCC2OCCO2)cc1` reads 67 to 68 °C; that for `COC(=O)C(Oc1ccccc1)c1ccc(I)cc1` (stereo not drawn), 68 to 71 °C; that for `CCOC(=O)C(C)(C)c1ccc2c(c1)Nc1ccccc1S2`, 96 to 99 °C.
As for `CC(=O)C=C(c1ccc(C#N)cc1)n1ccnc1`, the melting point was in the range of 123 to 126 °C.
The result for `NCC(=O)NCCCCNc1cccc2c1C(=O)c1ccccc1C2=O` reads 206 °C.
The result for `CC1(C)CCCC(C)(C)N1Cc1ccc2cc(NC(=O)N3CCC(c4ccc(Cl)cc4)CC3)ccc2n1` reads 203 to 204 °C; that for `COc1cc2ncc(C#N)c(Nc3ccc(C(N)=O)cc3)c2cc1OC`, > 250 °C; that for `CCOCCc1c(-c2ccc(OC)cc2)nc(N)n2ncnc12`, 176 to 177 °C.
The compound `COC(=O)CC(=O)Nc1ccccc1COc1ccc(C(C)=O)c(O)c1` came in with a melting point of 130 to 132 °C.
The result for `Cn1c(=O)n(Cc2ccccc2)c2cc(Cn3ccnc3)ccc21` reads 129 °C.
With `COc1ccc2c(c1[N+](=O)[O-])CNCC(=O)N2` the figure was 220 to 222 °C.
With `Cc1oc(-c2ccccc2)nc1CCOc1ccc(C[C@@H](C(=O)O)N2CCN(c3ccccc3)CC2)cc1Br` the figure was 220 to 222 °C; with `ClC(Cl)(Cl)c1nc(-c2ccc(OCCCn3ccnc3)cc2)no1`, 102 to 103 °C.
The compound `CCn1cc(OS(C)(=O)=O)c(=O)c2ccccc21` showed a melting point of 141 to 143 °C.
In turn, `CC=C1OC(=O)c2c(OC)cccc21` gave a melting point of 106 to 109 °C.
With `COC(=N)N1CCC(c2n[nH]c3ccccc23)CC1` the figure was 153 to 155 °C; with `CCOC(=O)COc1cccc(C(=O)Nc2ccccc2Sc2ccccc2-c2nnn[nH]2)c1`, 130 to 133 °C.
The result for `CC1C(OC(=O)CCCCCCCCC(=O)OC2C(C)C(c3ccccc3)N(O)C(c3ccccc3)C2C)C(C)C(c2ccccc2)N(O)C1c1ccccc1` (stereo not drawn) reads 190 to 191 °C; that for `COC(=O)c1ccc(/C=C(\C)c2ccc3c(c2)CCCCN3C)cc1`, 106 °C.
With `CS(=O)(=O)C1CCCC1Br` (stereo not drawn) the figure was 50 to 52 °C; with `CN1CCN(C2CCN(c3ncc4ncnc(Nc5ccc(F)c(Cl)c5)c4n3)CC2)CC1`, 163 to 165 °C; with `CS(=O)(=O)N1CN(C(=O)c2c(F)cccc2F)C(=O)N(c2ccc(Cl)cc2)C1`, 178 °C.
The compound `FC(F)=C(F)CCCCSc1nnc(-c2ccc(C(F)(F)F)cc2)o1` displayed a melting point of 40 °C.
With `c1cc(OC[C@H]2CO2)cc(-c2noc3ncccc23)c1` the figure was 91 to 93 °C.
`Fc1cc(F)c(-c2c(Cl)ncn2-c2ccc(Cl)cc2)c(F)c1` returned a melting point of 102 to 104 °C.
The result for `CON(C)C(=O)c1cc2c3c(c1)c(-c1cccc(Cl)c1)cc(=O)n3CC2` reads 162 °C; that for `O=C1c2cnc(N3CCN(Cc4ccccc4)CC3)nc2CN1C1CCCCC1`, 176 to 178 °C; that for `CCNc1nnc2ccc(-c3cccc(N(CC)C(=O)CC)c3)nn12`, 164 to 166 °C.
The result for `CCOC(=O)CC(C)Nc1ccc(OC)c(OC)c1` (stereo not drawn) reads 59 to 60 °C.
With `CCc1cc(C)c2c(n1)-c1ccccc1C2=O` the figure was 68 to 70 °C; with `CCCCCCCCCCCCOC(=O)c1cc([N+](=O)[O-])c(C(=O)O)cc1C(=O)O`, 148 °C; with `C=CCN(C)CCCCCCOc1ccc2c(-c3ccc(Br)cc3)cc(C)nc2c1`, 88 to 93 °C.
In the case of `COc1ccc(CN(C)CCc2ccc(NC(=O)c3cccc4c(=O)c5c(OC)c(OC)c(OC)cc5[nH]c34)cc2)cc1OC`, the melting point turned out to be 158 °C.
The result for `CCS(=O)(=O)N(C(C)=O)c1cc(-n2nc3ccc(Cl)cn3c2=O)c(F)cc1C#N` reads 220 to 222 °C.
As to `NC(=O)c1ncn2c1[C@@H]1CCN1C(=O)c1c-2cccc1C(F)(F)F`, the melting point was > 300 °C.
For the compound `CCOC(=O)c1ccc(C(=O)Nc2ccc3c(c2)CCC(C)(C)C(=O)N3C)cc1`, the melting point lay in the range of 183 to 184 °C.
The result for `CCCCCCC#CCC#CCC#CCC#CCCCC(=O)NO` reads 85 to 88 °C; that for `CCc1nnc2n1N=C1c3cc(OC)c(OC)cc3CC1S2` (stereo not drawn), 212 °C.
As for `CN(C)C(=O)c1cc(C(=O)O)c2cc(Cc3ccc(F)cc3)cnc2c1O`, the melting point fell in the range of 214 to 216 °C.
With `O=C(NCC(Cc1ccccc1)C(=O)Nc1n[nH]c(=S)s1)OCc1ccccc1` (stereo not drawn) the figure was 88 to 90 °C.
With `FC(F)(F)Oc1ccc2c(c1)nc(/C=C/c1ccccc1)n2-c1ccccn1` the figure was 92 to 93 °C; with `COC(=O)c1ccc(O)c(O)c1O`, 221 °C; with `Cn1nc(Br)c(Br)c1Br`, 85 to 86 °C.
The result for `CC(C)(C)OC(=O)NCCCCn1c(-c2ccccc2)nc2cnc3ccccc3c21` reads 158 to 159 °C; that for `CC(C)(C)OC(=O)N1CCN(C(=O)c2nc3c(N)nc(N)nc3nc2N)CC1`, 245 to 250 °C; that for `CCCCc1nc2c(C)cnc(C(=O)O)c2n1Cc1ccc(-c2ccccc2-c2nnn[nH]2)cc1`, 159 to 161 °C.
Compound `O=S1(=O)c2ccccc2-c2ccccc2N1CCCN1CCN(c2ccc(F)cc2)CC1` returned a melting point of 163 °C.
Take `COc1cc2ncnc(N3CCc4c(C)cccc43)c2cc1OC`: the melting point lay in the range of 174 to 175 °C.
The result for `O=C(NOCC(O)CN1CCCCC1)c1cccc2ccccc12` (stereo not drawn) reads 104 to 107 °C; that for `O=C(NCc1ccccc1)c1oc(=O)c2ncccc2c1-c1ccccc1`, 188 to 189 °C.
The result for `CC(C)(C)c1nc2cc(N3CCCC3)c(NC(N)=S)cc2s1` reads 221 °C; that for `CNC(=S)NS(=O)(=O)c1cc(CCNC(=O)C=Cc2cccs2)ccc1OCC1CCCO1` (stereo not drawn), 78 °C.
With `COc1ccc(C)cc1NC(=O)Nc1ccc(C2CCN(C(=O)Nc3cc(OCCO)ccc3Cl)CC2)cc1` the figure was 202 to 205 °C; with `N=C(Nc1ccc(C2CCCC2)c(CN2CCC[C@H]2CO)c1)c1cccs1`, 132 to 133 °C.
Compound `Cc1ccc2c(c1)C(C(=O)Nc1c(C(C)C)cc(SC#N)cc1C(C)C)c1ccccc1CO2` (stereo not drawn) gave a melting point of 146 °C.
The result for `CCN(CC)C(=O)COc1ccc(C(O)(CC)c2cccc(C(F)(F)F)c2)cc1` (stereo not drawn) reads 83 to 84 °C; that for `O=C(CCOc1cccc(CN2CCCCC2)c1)Nc1cccnc1`, 92 to 96 °C.
The result for `O=C1O[C@@H]2C[C@@]1(O)c1cc(-c3ccccc3)sc1[C@H]2O` reads 168 to 173 °C; that for `COc1ccc(S(=O)(=O)N2CCc3cccc(-c4ccc(F)c(F)c4)c32)cc1`, 180 to 181 °C; that for `C[C@@H]1Cc2cc(N3C[C@H](CN=[N+]=[N-])OC3=O)ccc2N1C(=O)OCc1ccccc1`, 192 to 193 °C.
The result for `Cc1cccc(-c2n[nH]cc2-c2ccc(F)c(-c3csc(CO)n3)c2)n1` reads 89 to 92 °C; that for `COC(=O)C1=C(C)NC(C)=C(C(=O)OCCCOc2ccc(CCO)cc2)C1c1cccc([N+](=O)[O-])c1` (stereo not drawn), < 50 °C.
`Cc1nc(NCC(C)C)sc1C(=O)c1ccc(N)c([N+](=O)[O-])c1` registered a melting point of 210 to 215 °C.
With `CN1OCCN(c2ccc(Cl)c(C(F)(F)F)c2)C1=O` the figure was 72 to 73 °C; with `COCc1c(C(=O)OC(C)C)ncc2[nH]c3cccc(-c4cccs4)c3c12`, 160 to 162 °C.
With `OCC#Cc1cccnc1` the figure was 99 to 100 °C; with `Nc1sc2c(c1C(=O)c1ccc(Cl)cc1)CCN(CCc1ccc([N+](=O)[O-])cc1)C2`, 150 to 152 °C; with `Nc1cc(Br)cnc1CCCCNc1ncc(Cc2ccc(F)cc2)c(=O)[nH]1`, 146 to 148 °C.
With `CCOCc1nc2c(N)nc(C)c(C)c2n1CCCCS(=O)(=O)NC` the figure was 194 to 196 °C; with `CCCn1c(-c2ccc(-n3ccnc3)cc2)cnc1[C@H](Cc1ccccn1)N(C=O)c1cc2cc(F)ccc2o1`, 77 to 81 °C.
For the compound `O=C(Cc1ccccc1)N1CCN(c2ccc(Cl)cc2)CC1`, the melting point fell in the range of 93 to 94 °C.
With `N#Cc1ccc2[nH]cc(CCNCC(F)(F)F)c2c1` the figure was 102 °C.
With `CSC(=N)N(C#N)C(c1ccccn1)c1ccccc1C` (stereo not drawn) the figure was 162 to 164 °C; with `CCOC(=O)C(=CC(C)c1ccc(Br)cc1)CC(=O)O` (stereo not drawn), 107 °C.
In turn, `O=c1nc(-c2ccccc2)oc2ccccc12` came in with a melting point of 104 to 105 °C.
With `CCN(C(=O)OC(C)(C)C)C(Cc1ccccc1)C(=O)NC(CCSC)C(=O)NCC(=O)NC(Cc1ccccc1)C(=O)NC1C2CC3CC(C2)CC1C3` (stereo not drawn) the figure was 175 to 178 °C; with `CC(C)c1ccc(Oc2ccc(CCNc3ncnc4nccnc34)cc2)cc1`, 105 to 106 °C.
With `COc1ccc2cc3c(cc2c1)C(=O)NC3=O` the figure was > 250 °C.
With `O=C(O)c1cn(O)c2ccc3[nH]c(=O)sc3c2c1=O` the figure was > 300 °C; with `CCc1nc2nc3cc(Cl)ccc3nc2n1C(=O)C=C(C)C`, 170 to 172 °C; with `Cc1c(CC(=O)O)oc2ccccc12`, 108 °C.

The term melting point denotes the temperature of the solid-liquid transition.
